Results from patent US5547962A, “5-amino-8-methyl-7-pyrrolidinylquinoline-3-carboxylic acid derivative” (priority 1993, dated 1996).
≈ marks a conversion by molar mass, not a printed value.

Columns and labels:
Male Hartley guinea pigs = assay type: in vivo; conditions: 10 mg/kg i.v., UVA 90 minutes, 24 h after irradiation
Experimental: Male Hartley guinea pigs were intravenously administered test compounds at a dose of 10 mg/kg, and immediately exposed to UVA on their backs for 90 minutes.

S. aureus HPC308 = assay: Antibacterial activity, MIC by agar dilution; assay type: cell-based; conditions: Staphylococcus aureus, clinically isolated strain, gram +
Description: (§1) The strains employed were as follows:
(§2) Staphylococcus aureus (S. aureus)

S. aureus HPC527 = assay: Antibacterial activity, MIC by agar dilution; assay type: cell-based; conditions: Staphylococcus aureus, clinically isolated strain, gram +
Description: as §1, §2

S. aureus HPC292 = assay: Antibacterial activity, MIC by agar dilution; assay type: cell-based; conditions: Staphylococcus aureus, clinically isolated strain, gram +
Description: as §1, §2

S. aureus FDA 209P JC-1 = assay: Antibacterial activity, MIC by agar dilution; assay type: cell-based; conditions: Staphylococcus aureus, FDA209P; laboratory standard strain, gram +
Description: as §1, §2

E. coli NIHJ JC-2 = assay: Antibacterial activity, MIC by agar dilution; assay type: cell-based; conditions: Escherichia coli, NIHJJC2; laboratory standard strain, gram -
Description: as §1
Escherichia coli (E. coli)

A. calcoaceticus HNR916 = assay: Antibacterial activity, MIC by agar dilution; assay type: cell-based; conditions: Acinetobacter calcoaceticus, clinically isolated strain, gram -
Description: as §1
(§3) Acinetobacter calcoaceticus (A. calcoaceticus)

A. calcoaceticus HNR939 = assay: Antibacterial activity, MIC by agar dilution; assay type: cell-based; conditions: Acinetobacter calcoaceticus, clinically isolated strain, gram -
Description: as §1, §3

A. calcoaceticus HNR904 = assay: Antibacterial activity, MIC by agar dilution; assay type: cell-based; conditions: Acinetobacter calcoaceticus, clinically isolated strain, gram -
Description: as §1, §3

K. pneumoniae HNR828 = assay: Antibacterial activity, MIC by agar dilution; assay type: cell-based; conditions: Klebsiella pneumoniae, clinically isolated strain, gram -
Description: as §1
(§4) Klebsiella pneumoniae (K. pneumoniae)

K. pneumoniae HNR869 = assay: Antibacterial activity, MIC by agar dilution; assay type: cell-based; conditions: Klebsiella pneumoniae, clinically isolated strain, gram -
Description: as §1, §4

K. pneumoniae HNR858 = assay: Antibacterial activity, MIC by agar dilution; assay type: cell-based; conditions: Klebsiella pneumoniae, clinically isolated strain, gram -
Description: as §1, §4

K. pneumoniae PCI-602 = assay: Antibacterial activity, MIC by agar dilution; assay type: cell-based; conditions: Klebsiella pneumoniae, PCI602; laboratory standard strain, gram -
Description: as §1, §4

S. marcescens HNR1792 = assay: Antibacterial activity, MIC by agar dilution; assay type: cell-based; conditions: Serratia marcescens, clinically isolated strain, gram -
Description: as §1
(§5) Serratia marcescens (S. marcescens)

S. marcescens HNR1544 = assay: Antibacterial activity, MIC by agar dilution; assay type: cell-based; conditions: Serratia marcescens, clinically isolated strain, gram -
Description: as §1, §5

S. marcescens HNR1767 = assay: Antibacterial activity, MIC by agar dilution; assay type: cell-based; conditions: Serratia marcescens, clinically isolated strain, gram -
Description: as §1, §5

S. marcescens IAM 1184 = assay: Antibacterial activity, MIC by agar dilution; assay type: cell-based; conditions: Serratia marcescens, IAM1184; laboratory standard strain, gram -
Description: as §1, §5

E. faecalis HPC975 = assay: Antibacterial activity, MIC by agar dilution; assay type: cell-based; conditions: Enterococcus faecalis, clinically isolated strain, gram +
Description: as §1
(§6) Enterococcus faecalis (E. faecalis)

E. faecalis HPC984 = assay: Antibacterial activity, MIC by agar dilution; assay type: cell-based; conditions: Enterococcus faecalis, clinically isolated strain, gram +
Description: as §1, §6

E. faecalis HPC948 = assay: Antibacterial activity, MIC by agar dilution; assay type: cell-based; conditions: Enterococcus faecalis, clinically isolated strain, gram +
Description: as §1, §6

E. cloacae HNR1946 = assay: Antibacterial activity, MIC by agar dilution; assay type: cell-based; conditions: Enterobacter cloacae, clinically isolated strain, gram -
Description: as §1
(§7) Enterobacter cloacae (E. cloacae)

E. cloacae 963 = assay: Antibacterial activity, MIC by agar dilution; assay type: cell-based; conditions: Enterobacter cloacae, laboratory standard strain, gram -
Description: as §1, §7

E. cloacae HNR1939 = assay: Antibacterial activity, MIC by agar dilution; assay type: cell-based; conditions: Enterobacter cloacae, clinically isolated strain, gram -
Description: as §1, §7

E. cloacae HNR1941 = assay: Antibacterial activity, MIC by agar dilution; assay type: cell-based; conditions: Enterobacter cloacae, clinically isolated strain, gram -
Description: as §1, §7

male ICR mice = assay: Convulsions, intraperitoneal (i.p.) administration with fenbufen; conditions: 100 mg/kg i.p., fenbufen 100 mg/kg orally
Experimental: Thirty minutes later, they were injected intraperitoneally with the test compounds at a dose of 100 mg/kg. Thereafter, the onset of convulsions was recorded.

Male Wistar rats = assay: Convulsions, intracerebroventricular (i.c.v.) administration with fenbufen; assay type: in vivo, rat; conditions: 20 μg i.c.v., fenbufen 50 mg/kg i.p.
Experimental: Male Wistar rats weighing 180-220 g were anesthetized with sodium pentobarbital (45 mg/kg, i.p.) and fixed in a stereotaxic apparatus. For the intracerebroventricular injection, a 0.6 mm diameter stainless steel guide cannula was implanted in each rat, being positioned 1.5 mm above the left lateral cerebroventricle (A: 6.2, R: 1.0, H: +1.0), according to the atlas of De Groot (1959). The guide cannula was fixed with dental cement on the skull and it was closed with a 0.3 mm diameter stainless steel stylet. To prevent infection, 10,000 units of potassium penicillin G were injected intramuscularly. The rats were allowed a few days to recover from the surgery.
For the measurement of convulsions, 30 min after intraperitoneal injection of 50 mg/kg of fenbufen, 20 μg of the test compounds was given through a 0.3 mm diameter of stainless steel cannula with a polyethylene catheter, which was 1.5 mm longer than the guide cannula in order to be inserted into the […] cerebroventricle (H: +1.0). […] The position of the intracerebroventricular cannula was confirmed by the injection of 10 μl of 1% evans blue followed by sectioning of the brain of each rat which had been used in the experiment.

CHL cells = assay: Chromosomal aberration test with a Chinese hamster lung cell line (CHL); assay type: cell-based; conditions: Table 5-A; CHL cells, 100 μg/ml
Experimental: The chromosomal aberration test was conducted with a Chinese hamster lung cell line (CHL). 2-(2-Furyl)-3-(5-nitro-2-furyl)acrylamide was used as a positive control. Cells treated with the test compounds were cultured for 6 h at 37° C. in 5% CO2 -humidified air. Following the 6 h treatment the cells were washed. Fresh medium was added to the washed cells and they were cultured for a further 18 h. Colcemide was added to the cultures 2 h before the fixation of chromosome preparation, in order to collect metaphase cells.

[1] = system: polychromatic erythrocytes (PCEs); assay: Micronucleus test, bone marrow of mice; assay type: in vivo, BDF 1 mice; conditions: percent of the number of MNPCEs per 1,000 PCEs; 250 mg/kg i.p., 24 h
Experimental: Nine-week-old male BDF 1 mice were used in this test. The test compounds were injected intraperitoneally with a dose of 250 mg/kg. After 24 h mice were sacrificed and the bone marrow of the femur was collected. Bone marrow smears were fixed on the slides with methanol and stained with Giemsa according to the usual method. For each animal, the number of micronucleated polychromatic erythrocytes (MNPCEs) per 1,000 polychromatic erythrocytes (PCEs) was counted under the microscope. Cyclophosphamide was used as a positive control.

MIC (S. aureus HPC308) [µg/mL] | MIC (S. aureus HPC527) [µg/mL] | MIC (S. aureus HPC292) [µg/mL] | MIC (S. aureus FDA 209P JC-1) [µg/mL] | MIC (E. coli NIHJ JC-2) [µg/mL] | MIC (A. calcoaceticus HNR916) [µg/mL] | MIC (A. calcoaceticus HNR939) [µg/mL] | MIC (A. calcoaceticus HNR904) [µg/mL] | MIC (K. pneumoniae HNR828) [µg/mL] | MIC (K. pneumoniae HNR869) [µg/mL] | MIC (K. pneumoniae HNR858) [µg/mL] | MIC (K. pneumoniae PCI-602) [µg/mL] | MIC (S. marcescens HNR1792) [µg/mL] | MIC (S. marcescens HNR1544) [µg/mL] | MIC (S. marcescens HNR1767) [µg/mL] | MIC (S. marcescens IAM 1184) [µg/mL] | MIC (E. faecalis HPC975) [µg/mL] | MIC (E. faecalis HPC984) [µg/mL] | MIC (E. faecalis HPC948) [µg/mL] | MIC (E. cloacae HNR1946) [µg/mL] | Structure (SMILES) | further results
 |  |  |  |  |  |  |  |  |  |  |  |  |  |  |  |  |  |  |  | O=C(O)c1cn(C2CC2)c2cc(N3CCNCC3)c(F)cc2c1=O [Ciprofloxacin, ciprofloxacin] | Convulsions i.p.: number of animals with convulsions/number of animals tested (male ICR mice): 3/6; Convulsions i.c.v.: number of animals with convulsions/number of animals tested (Male Wistar rats): 3/3; Frequency of chromosomal aberration (CHL cells): - (<10%)
 |  |  |  |  |  |  |  |  |  |  |  |  |  |  |  |  |  |  |  | O=P1(N(CCCl)CCCl)NCCCO1 (centres unmarked) [Cyclophosphamide, reference compound] | Incidence of MNPCEs [1]: 2.9%
0.39 | 0.025 | 1.56 | 0.025 | 0.05 (≈ 0.129 µM) | 0.025 (≈ 0.0644 µM) | 0.39 (≈ 1 µM) | 6.25 (≈ 16.1 µM) | 12.5 (≈ 32.2 µM) | 3.13 (≈ 8.06 µM) | 0.39 (≈ 1 µM) | 0.003 (≈ 0.00772 µM) | 6.25 (≈ 16.1 µM) | 0.1 (≈ 0.257 µM) | 25 (≈ 64.4 µM) | 0.39 (≈ 1 µM) | 1.56 | 0.2 | 0.39 | 0.39 (≈ 1 µM) | Cc1c(N2C[C@@H](N)C(C)(C)C2)c(F)c(N)c2c(=O)c(C(=O)O)cn(C3CC3)c12 [Example 16, 5-Amino-7-((S)-3-amino-4,4-dimethyl-1-pyrrolidinyl)-1-cyclopropyl-6-fluoro-1,4-dihydro-8-methyl-4-oxoquinoline-3-carboxylic acid] | MIC (E. cloacae 963): 0.05 µg/mL (≈ 0.129 µM); MIC (E. cloacae HNR1939): 0.39 µg/mL (≈ 1 µM); MIC (E. cloacae HNR1941): 12.5 µg/mL (≈ 32.2 µM)
0.78 | 0.05 | 6.25 | 0.025 | 0.025 (≈ 0.0668 µM) | 0.05 (≈ 0.134 µM) | 0.78 (≈ 2.08 µM) | 12.5 (≈ 33.4 µM) | 6.25 (≈ 16.7 µM) | 3.13 (≈ 8.36 µM) | 0.39 (≈ 1.04 µM) | 0.006 (≈ 0.016 µM) | 3.13 (≈ 8.36 µM) | 0.1 (≈ 0.267 µM) | 25 (≈ 66.8 µM) | 0.2 (≈ 0.534 µM) | 3.13 | 0.2 | 0.78 | 0.39 (≈ 1.04 µM) | Cc1c(N2CCC(C)(N)C2)c(F)c(N)c2c(=O)c(C(=O)O)cn(C3CC3)c12 (centres unmarked) [Example 18, 5-Amino-7-(3-amino-3-methyl-1-pyrrolidinyl)-1-cyclopropyl-6-fluoro-1,4-dihydro-8-methyl-4-oxoquinoline-3-carboxylic acid] | MIC (E. cloacae 963): 0.05 µg/mL (≈ 0.134 µM); MIC (E. cloacae HNR1939): 0.39 µg/mL (≈ 1.04 µM); MIC (E. cloacae HNR1941): 12.5 µg/mL (≈ 33.4 µM)

Structure (SMILES) | MIC (S. aureus HPC308) [µg/mL] | MIC (S. aureus HPC527) [µg/mL] | MIC (S. aureus HPC292) [µg/mL] | MIC (S. aureus FDA 209P JC-1) [µg/mL] | MIC (E. coli NIHJ JC-2) [µg/mL] | MIC (A. calcoaceticus HNR916) [µg/mL] | MIC (A. calcoaceticus HNR939) [µg/mL] | MIC (A. calcoaceticus HNR904) [µg/mL] | MIC (K. pneumoniae HNR828) [µg/mL] | MIC (K. pneumoniae HNR869) [µg/mL] | MIC (K. pneumoniae HNR858) [µg/mL] | MIC (K. pneumoniae PCI-602) [µg/mL] | MIC (S. marcescens HNR1792) [µg/mL] | MIC (S. marcescens HNR1544) [µg/mL] | MIC (S. marcescens HNR1767) [µg/mL] | MIC (S. marcescens IAM 1184) [µg/mL] | MIC (E. faecalis HPC975) [µg/mL] | MIC (E. faecalis HPC984) [µg/mL] | MIC (E. faecalis HPC948) [µg/mL] | MIC (E. cloacae HNR1946) [µg/mL] | further results
Cc1c(N2C[C@@H](N)[C@@H](C)C2)c(F)c(N)c2c(=O)c(C(=O)O)cn(C3CC3)c12 (relative stereo) [Example 14, 5-Amino-7-(cis-3-amino-4-methyl-1-pyrrolidinyl)-1-cyclopropyl-6-fluoro-1,4-dihydro-8-methyl-4-oxoquinoline-3-carboxylic acid] | 0.39 | 0.012 | 1.56 | 0.012 | 0.012 (≈ 0.032 µM) | 0.025 (≈ 0.0668 µM) | 0.2 (≈ 0.534 µM) | 3.13 (≈ 8.36 µM) | 3.13 (≈ 8.36 µM) | 1.56 (≈ 4.17 µM) | 0.2 (≈ 0.534 µM) | 0.006 (≈ 0.016 µM) | 3.13 (≈ 8.36 µM) | 0.05 (≈ 0.134 µM) | 6.25 (≈ 16.7 µM) | 0.2 (≈ 0.534 µM) | 1.56 | 0.2 | 0.39 | 0.2 (≈ 0.534 µM) | Phototoxicity: number of animals with erythemas/number of animals tested (Male Hartley guinea pigs): 0/5; MIC (E. cloacae 963): 0.05 µg/mL (≈ 0.134 µM); MIC (E. cloacae HNR1939): 0.2 µg/mL (≈ 0.534 µM); MIC (E. cloacae HNR1941): 6.25 µg/mL (≈ 16.7 µM)
